Measurements from ChEMBL document CHEMBL3217664, “Synthesis and biological evaluation of 4-chlorocolchicine derivatives as potent anticancer agents with broad effective dosage ranges” (Medchemcomm, 2012).

How the values were obtained:
A549 = assay: Cytotoxicity against human A549 cells after 96 hrs by microplate reader analysis; type: functional, cell-based; conditions: A549, 96 h
HCT-116 [1] = assay: Cytotoxicity against human HCT116 cells after 96 hrs by microplate reader analysis; type: functional, cell-based; conditions: HCT-116, 96 h
HT-29 = assay: Cytotoxicity against human HT-29 cells after 96 hrs by microplate reader analysis; type: functional, cell-based; conditions: HT-29, 96 h
Mus musculus [2] = assay: Toxicity in BALB/c mouse assessed as mortality at 12.5 mg/kg/day, iv administered on day 1, 5 and 9; type: organism-based; parameters: route intravenous; conditions: in vivo
HCT-116 [3] = assay: Antitumor activity against human HCT116 cells xenografted in BALB/c mouse assessed as tumor growth inhibition at 25 mg/kg/day, iv administered on day 1, 5 and 9 relative to control; type: functional; conditions: HCT-116, 24 h, read-out: TGI
HCT-116 [4] = assay: Antitumor activity against human HCT116 cells xenografted in BALB/c mouse assessed as tumor growth inhibition at 12.5 mg/kg/day, iv administered on day 1, 5 and 9 relative to control; type: functional; conditions: HCT-116, 24 h, read-out: TGI
Liver = assay: Metabolic stability in BALB/c mouse liver microsomes at 1 umol/l by LC-MS/MS analysis; type: ADME; conditions: 1 µM
HCT-116 [5] = assay: Antitumor activity against human HCT116 cells xenografted in BALB/c mouse assessed as tumor growth inhibition at 0.75 mg/kg/day, iv administered on day 1, 5 and 9 relative to control; type: functional; conditions: HCT-116, 24 h, read-out: TGI
Mus musculus [6] = assay: Toxicity in BALB/c mouse assessed as mortality at 0.75 mg/kg/day, iv administered on day 1, 5 and 9; type: organism-based; parameters: route intravenous; conditions: in vivo
Mus musculus [7] = assay: Toxicity in BALB/c mouse assessed as mortality at 1.5 mg/kg/day, iv administered on day 1, 5 and 9; type: organism-based; parameters: route intravenous; conditions: in vivo
HCT-116 [8] = assay: Antitumor activity against human HCT116 cells xenografted in BALB/c mouse assessed as tumor growth inhibition at 1.5 mg/kg/day, iv administered on day 1, 5 and 9 relative to control; type: functional; conditions: HCT-116, 24 h, read-out: TGI
Mus musculus [9] = assay: Toxicity in BALB/c mouse assessed as mortality at 10 mg/kg/day, iv administered on day 1, 5 and 9; type: organism-based; parameters: route intravenous; conditions: in vivo
Mus musculus [10] = assay: Toxicity in BALB/c mouse assessed as mortality at 5 mg/kg/day, iv administered on day 1, 5 and 9; type: organism-based; parameters: route intravenous; conditions: in vivo
HCT-116 [11] = assay: Antitumor activity against human HCT116 cells xenografted in BALB/c mouse assessed as tumor growth inhibition at 5 mg/kg/day, iv administered on day 1, 5 and 9 relative to control; type: functional; conditions: HCT-116, 24 h, read-out: TGI
HCT-116 [12] = assay: Antitumor activity against human HCT116 cells xenografted in BALB/c mouse assessed as tumor growth inhibition at 10 mg/kg/day, iv administered on day 1, 5 and 9 relative to control; type: functional; conditions: HCT-116, 24 h, read-out: TGI

COc1c(Cl)c2c(c(OC)c1OC)-c1ccc(OC)c(=O)cc1[C@@H](NC(=O)C1CCCCC1)CC2
IC50 (A549): 10.4 nM
IC50 (HCT-116 [1]): 7.2 nM
IC50 (HT-29): 7.1 nM

CCC(=O)N[C@H]1CCc2c(Cl)c(OC)c(OC)c(OC)c2-c2ccc(OC)c(=O)cc21
Activity (Mus musculus [2]): Non-toxic
inhibition in vivo at 25 mg/kg/day (HCT-116 [3]): 76.1%
inhibition in vivo at 12.5 mg/kg/day (HCT-116 [4]): 57.3%
IC50 (A549): 7.8 nM
IC50 (HCT-116 [1]): 7.5 nM
Stability (Liver): 302 µL/min/mg
IC50 (HT-29): 3.3 nM

COc1c(Cl)c2c(c(OC)c1OC)-c1ccc(OC)c(=O)cc1[C@@H](NC(=O)CCO)CC2
IC50 (A549): 230 nM
IC50 (HCT-116 [1]): 48.6 nM
IC50 (HT-29): 46.1 nM

COc1ccccc1C(=O)N[C@H]1CCc2c(Cl)c(OC)c(OC)c(OC)c2-c2ccc(OC)c(=O)cc21
IC50 (A549): 13.2 nM
IC50 (HCT-116 [1]): 26.4 nM
IC50 (HT-29): 12.5 nM

COc1c(Cl)c2c(c(OC)c1OC)-c1ccc(OC)c(=O)cc1[C@@H](NC(=O)c1ccccc1C#N)CC2
IC50 (A549): 140 nM
IC50 (HCT-116 [1]): 104 nM
IC50 (HT-29): 49.7 nM

COc1c(Cl)c2c(c(OC)c1OC)-c1ccc(OC)c(=O)cc1[C@@H](NC(=O)c1cc(F)c(F)c(F)c1)CC2
IC50 (A549): 6.6 nM
IC50 (HCT-116 [1]): 7.2 nM
IC50 (HT-29): 6.3 nM

CCCCCCC(=O)N[C@H]1CCc2c(Cl)c(OC)c(OC)c(OC)c2-c2ccc(OC)c(=O)cc21
IC50 (A549): 49.7 nM
IC50 (HCT-116 [1]): 36.9 nM
IC50 (HT-29): 38.3 nM

COc1c(Cl)c2c(c(OC)c1OC)-c1ccc(OC)c(=O)cc1[C@@H](NC(=O)CCN(C)C)CC2
IC50 (A549): 960 nM
IC50 (HCT-116 [1]): 539 nM
IC50 (HT-29): 354 nM

COc1c(Cl)c2c(c(OC)c1OC)-c1ccc(OC)c(=O)cc1[C@@H](NC(=O)CCCC(=O)O)CC2
IC50 (A549): 5360 nM
IC50 (HCT-116 [1]): 3680 nM
IC50 (HT-29): 2250 nM

COc1c(Cl)c2c(c(OC)c1OC)-c1ccc(OC)c(=O)cc1[C@@H](NC(=O)c1ccccc1[N+](=O)[O-])CC2
IC50 (A549): 56.6 nM
IC50 (HCT-116 [1]): 30.2 nM
IC50 (HT-29): 31.7 nM

COc1cc2c(c(OC)c1OC)-c1ccc(OC)c(=O)cc1[C@@H](NC(C)=O)CC2 [COLCHICINE]
inhibition in vivo at 0.75 mg/kg/day (HCT-116 [5]): 14%
Activity (Mus musculus [6]): Non-toxic
Stability (Liver): 1 µL/min/mg
Activity (Mus musculus [7]): Non-toxic
inhibition in vivo at 1.5 mg/kg/day (HCT-116 [8]): 92.6%

COc1c(Cl)c2c(c(OC)c1OC)-c1ccc(OC)c(=O)cc1[C@@H](NC(=O)C(F)(F)F)CC2
Activity (Mus musculus [9]): Non-toxic
Activity (Mus musculus [10]): Non-toxic
IC50 (A549): 1.8 nM
inhibition in vivo at 5 mg/kg/day (HCT-116 [11]): 30.6%
IC50 (HCT-116 [1]): 1.5 nM
Stability (Liver): 339 µL/min/mg
inhibition in vivo at 10 mg/kg/day (HCT-116 [12]): 62.7%
IC50 (HT-29): 1.5 nM

COc1c(Cl)c2c(c(OC)c1OC)-c1ccc(OC)c(=O)cc1[C@@H](N)CC2
IC50 (A549): 241 nM
IC50 (HCT-116 [1]): 207 nM
IC50 (HT-29): 225 nM

COc1c(Cl)c2c(c(OC)c1OC)-c1ccc(OC)c(=O)cc1[C@@H](NC(=O)c1cccc([N+](=O)[O-])c1)CC2
IC50 (A549): 1.7 nM
IC50 (HCT-116 [1]): 0.8 nM
IC50 (HT-29): 0.1 nM

COc1c(Cl)c2c(c(OC)c1OC)-c1ccc(OC)c(=O)cc1[C@@H](NC(=O)CCCO)CC2
IC50 (A549): 357 nM
IC50 (HCT-116 [1]): 175 nM
IC50 (HT-29): 168 nM

COc1cc(OC)cc(C(=O)N[C@H]2CCc3c(Cl)c(OC)c(OC)c(OC)c3-c3ccc(OC)c(=O)cc32)c1
IC50 (A549): 14.2 nM
IC50 (HCT-116 [1]): 6.5 nM
IC50 (HT-29): 7.9 nM

COc1c(Cl)c2c(c(OC)c1OC)-c1ccc(OC)c(=O)cc1[C@@H](NC(=O)c1ccc(N(C)C)cc1)CC2
IC50 (A549): 169 nM
IC50 (HCT-116 [1]): 150 nM
IC50 (HT-29): 148 nM

COc1c(Cl)c2c(c(OC)c1OC)-c1ccc(OC)c(=O)cc1[C@@H](NC(=O)[C@H](C)O)CC2
IC50 (A549): 18.7 nM
IC50 (HCT-116 [1]): 7.9 nM
IC50 (HT-29): 8.5 nM

COc1c(Cl)c2c(c(OC)c1OC)-c1ccc(OC)c(=O)cc1[C@@H](NC(=O)c1ccc([N+](=O)[O-])cc1)CC2
IC50 (A549): 11.2 nM
IC50 (HCT-116 [1]): 6.2 nM
IC50 (HT-29): 6.9 nM

CCCC(=O)N[C@H]1CCc2c(Cl)c(OC)c(OC)c(OC)c2-c2ccc(OC)c(=O)cc21
IC50 (A549): 9.8 nM
IC50 (HCT-116 [1]): 7.6 nM
IC50 (HT-29): 8.3 nM
